Key:
[1] = tested on: RPMI-8226-pomalidomide-R cells; experiment: Antiproliferative activity against resistant cells, CCK-8 assay; format: cell-based; conditions: Homo sapiens, 144 hours incubation
Method: (§1) In this example, lenalidomide-resistant human multiple myeloma cells, including NCI-H929 (NCI-H929-Lenalidomide-R) and RPMI-8226 (RPMI-8226-Lenalidomide-R), and pomalidomide-resistant human multiple myeloma cells, including NCI-H929 (NCI-H929-pomalidomide-R) and RPMI-8226 (RPMI-8226-pomalidomide-R), were selected as cell models to determine the inhibitory activity of compound I-8 of the present invention against the proliferation of the resistant cells.
(§2) • ① I-8 was dissolved in DMSO to prepare a 10 mM stock solution. Compounds used within three months should be stored at room temperature in a desiccator; others could be stored at -20°C for long-term storage. • ② The I-8 stock solution and the reference compounds lenalidomide and pomalidomide were all diluted with DMSO. Their initial concentrations were 10 µM. In the experiments of lenalidomide-resistant human multiple myeloma cells (NCI-H929 (NCI-H929-Lenalidomide-R) and RPMI-8226 (RPMI-8226-Lenalidomide-R) and pomalidomide-resistant human multiple myeloma cells (NCI-H929 (NCI-H929-pomalidomide-R) and RPMI-8226 (RPMI-8226-pomalidomide-R), 3-fold serial dilution with 11 concentration points was performed, with the lowest concentration of […]. The resulting solutions were shaken on a shaker for 5 minutes.
(§3) • ① The NCI-H929-Lenalidomide-R, RPMI-8226-Lenalidomide-R, NCI-H929-pomalidomide-R, and RPMI-8226-pomalidomide-R cells in logarithmic growth phase were inoculated in a 96-well plate, 20,000 to 30,000 cells per well, and the plate was pre-cultured for 24 hours in an incubator (at 37°C and 5% CO2). • ® The culture medium in the plate was replaced, and the compounds and the positive controls with corresponding concentrations were added to the plated at a volume of 50 µL. • ③ The plate was incubated for 144 hours in an incubator, then 15 µL of CCK-8 solution was added to each well, and the plate was incubated in the incubator for another 1-4 hours. • ④ The absorbance at 450 nm was measured using a microplate reader.
(§4) • ① Calculating % Inhibition: [formula] • ② Calculating IC50 value of compound and plotting dose-response curve: The IC50 value was calculated by fitting the % Inhibition and the logarithm of compound concentration to a nonlinear regression (dose response-variable slope) by using GraphPad 6.0. Y = Bottom + (Top−Bottom)/(1+10^(∧)((LogIC50−X)*HillSlope)) [formula] X: log of inhibitor concentration; Y: % Inhibition.
(§5) After calculating % Inhibition, a dose-response curve was plotted with the logarithm of the test compound concentration as the x-axis and the average cell viability as the y-axis, and the IC50 value was obtained by fitting.

[2] = tested on: RPMI-8226-Lenalidomide-R cells; experiment: as above; format: cell-based; conditions: Homo sapiens, 144 hours incubation
Method: as §1, §2, §3, §4, §5

[3] = tested on: NCI-H929-Lenalidomide-R cells; experiment: as above; format: cell-based; conditions: Homo sapiens, 144 hours incubation
Method: as §1, §2, §3, §4, §5

[4] = tested on: NCI-H929-pomalidomide-R cells; experiment: as above; format: cell-based; conditions: Homo sapiens, 144 hours incubation
Method: as §1, §2, §3, §4, §5

[5] = tested on: human multiple myeloma NCI-H929 xenograft tumors; experiment: In vivo activity of combination therapy with bortezomib or tazemetostat against NCI-H929 transplanted tumor; set-up: species or system NOD/SCID mice; conditions: I-8 3 mg/kg QD
Method: In this example, the human multiple myeloma NCI-H929 cell line was selected as the cell model to determine the inhibitory effects of compounds, bortezomib (Bort), and tazemetostat (Taze), as single drugs and in combination, on the growth of NOD/SCID mouse transplanted tumors of NCI-H929 tumor cells. The evaluation methods and results are described below.
Human multiple myeloma NCI-H929 cells were routinely cultured in RPMI1640 containing 10% fetal bovine serum at 37°C in a 5% CO2 incubator. After three passages in vitro, when the cells reached over 80% confluence and the required confluence rate, the cells were digested and harvested. After washing with PBS, the cells were counted and the cell concentration was adjusted to approximately 5 × 10^7 cells/mL. The cells were then placed in 4 mL centrifuge tubes on ice for later use.
Female NOD/SCID mice aged 4-5 weeks were selected and subcutaneously inoculated with NCI-H929 cells ectopically. The mice were held in a lateral position, the forelimb axilla was disinfected with 75% alcohol, and 100 µL of the cell suspension was injected subcutaneously into the axilla using a 1 mL syringe ([…]/100 µL).
After the tumors grew to 90-150 mm^3, the animals were randomly divided into groups, 8 mice in each group, and administered according to different administration methods as follows: • Model control group: Administered with the same volume of Vehicle (DMSO: 0.5% sodium carboxymethyl cellulose: distilled water = 1:1:8) daily by gavage; • Test group 1: administered with I-8 solution at 3 mg/kg (mouse body weight) daily by gavage; • Test group 2: administered with bortezomib (Bort) solution at 1 mg/kg (mouse body weight) twice weekly by gavage; • Test group 3: administered with tazemetostat solution at 100 mg/kg (mouse body weight) daily by gavage; • Test group 4: administered with I-8 at 3 mg/kg (mouse body weight) daily by gavage and bortezomib (Bort) solution at 1 mg/kg (mouse body weight) twice weekly by gavage; • Test group 5: administered with I-8 at 3 mg/kg (mouse body weight) daily by gavage and tazemetostat (Taze) solution at 100 mg/kg (mouse body weight) daily by gavage;
The route of administration was oral gavage, and the administration frequency was once daily, for 10 consecutive days. The first day of administration was defined as Day 1 of the experiment. Tumor volume changes in mice were measured and recorded every two days. Tumor volume was measured using a vernier caliper, in which the major axis (a) and minor axis (b) of the tumor were measured, and the tumor volume was calculated as tumor volume V (mm^3) = a x b^2/2. After the experiment, the mice were dissected and the tumor weight was measured. The data were entered and statistically analyzed using GraphPad Prism 6 software. The data are expressed as mean ± SEM (Standard Error of Mean), and one-way ANOVA was used. P ≤ 0.05 was considered statistically significant.

**Q.** `CN1Cc2c(NCc3ccc(CN4CCN(c5ccc(C#N)c(F)c5)CC4)cc3)cccc2C(=O)N1C1CCC(=O)NC1=O` (stereo not drawn) [I-8] was tested. Which IC50 [1] did it give?
**A.** 0.314 µM

**Q.** What about the IC50 [2] of the same molecule?
**A.** 0.246 µM

**Q.** What about the IC50 [3] of the same molecule?
**A.** 0.055 µM

**Q.** And the IC50 [4]?
**A.** 0.095 µM

**Q.** What about the “Average volume (mm^3) (Day 10)” value ([5]; Day 10, Bort 1 mg/kg BIW, Taze 100 mg/kg QD, combinations given as + Bort 3 mg/kg BIW / + Taze 3 mg/kg QD) of the same molecule?
**A.** 498.6 mm^3

**Q.** What about the “Tumor inhibition rate TGI (%)” value ([5]; Bort 1 mg/kg BIW, Taze 100 mg/kg QD, combinations given as + Bort 3 mg/kg BIW / + Taze 3 mg/kg QD) of the same molecule?
**A.** 77.24%

**Q.** What about the “growth of NCI-H929 transplanted tumors (in words)” value ([5]; bortezomib 1 mg/kg BIW, tazemetostat 100 mg/kg QD, alone or combined) of the same molecule?
**A.** effectively inhibits the growth

**Q.** And the “Initial volume (mm^3)” value ([5]; baseline, Bort 1 mg/kg BIW, Taze 100 mg/kg QD, combinations given as + Bort 3 mg/kg BIW / + Taze 3 mg/kg QD)?
**A.** 120.7 mm^3

**Q.** With `Nc1cccc2c1C(=O)N(C1CCC(=O)NC1=O)C2=O` (stereo not drawn) [Pomalidomide, reference compound] as the molecule, how does the IC50 [1] read?
**A.** > 100 µM

**Q.** What about the IC50 [2] of the same molecule?
**A.** > 100 µM

**Q.** What about the IC50 [3] of the same molecule?
**A.** > 100 µM

**Q.** And the IC50 [4]?
**A.** > 100 µM
